Reference: patent US20220168427A1 (Ranok Therapeutics (Hangzhou) Co. Ltd., priority 2019, published 2022)

Legend:
[1] = Pharmacokinetics and Tissue Distribution in the MV4-11 xenograft model; assay type: in vivo, mice; settings: female, CB-17 SCID, mouse, 5 mg/kg single intravenous dose
Experimental: Pharmacokinetics and Tissue Distribution
15 female CB-17 SCID mice (treated in accordance with AAALAC animal welfare guidelines) were weighed and administered 5 mg/kg of compound 074 by a single intravenous injection. 0.10 mL of blood was collected from each mouse by submandibular vein and sodium heparin was added as an anticoagulant. Samples were collected before compound administration, and at 1 hr, 6 hr 24 hr and 48 hr time points after administration, with 3 mice sampled per time point. After collection, samples were placed on ice and the animals sacrificed to collect tumor and normal tissues. The method development and analysis of all samples were performed by the analytical laboratory at Shanghai Medicilon Inc. Intra-day accuracy evaluation of samples for quality control was carried out during sample analysis and a quality control accuracy of more than 66.7% of samples was required between to be 80-120%. Pharmacokinetic parameters were calculated using Phoenix WinNonlin7.0 software.

HSP90α = HSP90α (Homo sapiens, UniProt P07900); experiment: HSP90α Binding Fluorescent Polarization (FP) Assay
Outline: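 Competitive FP assay in which compound displaces FITC-geldanamycin from recombinant HSP90α (28 μg/ml before addition) in BSA-containing buffer. Compounds in 3-fold series from 40 μM to 2.0 nM (dilution-plate concentrations), tested in duplicate. Readings after 30, 60 and 120 min at 25 °C; background-subtracted mP fitted to four-parameter log[inhibitor]-response curve.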

MV4-11 xenograft = experiment: MV4-11 AML tumor xenograft study in mice; settings: for animals tumor free at the end of the study: 3 weeks; for tumor growth inhibition: after 3 weeks of dosing
Experimental: Tumor Xenograft Studies in Mice
MV4-11 acute myeloid leukemia and SU-DHL-4 diffuse large B-cell lymphoma (ATCC, #CRL-2957) cells were cultured in medium supplemented with 10% fetal bovine serum at 37° C./5% CO2. 5×10^6 MV-4-11 or 1×10^7 SU-DHL-4 cells were collected and re-suspended in 0.1 mL of serum-free media with Matrigel (1:1 v/v) per mouse for subcutaneous inoculation in isoflurane anesthetized male BALB/c nude or C.B-17 scid mice, respectively (treated in accordance with AAALAC animal welfare guidelines). When the average tumor volumes reached 100-200 mm^3, tumor volume outliers were removed and the remaining animals randomly divided into groups of 6-8 with similar average tumor volumes in each group. […] […] The appearance and behavior of each mouse was observed and recorded daily. Body weights and tumor volumes were measured and recorded every 2-4 days and the results were expressed as group means±SEM. Pairwise statistical comparisons between groups were performed by one-way ANOVA, and p<0.05 was considered statistically significant.

BRD4 (BD1+BD2) = biological target: T1, BRD4 (BD1+BD2) (Homo sapiens, UniProt O60885); settings: read-out: BRD4 Binding Potency
T1 construct: 1.8 μg/ml recombinant BRD4 (BD1+BD2 domains) protein

[2] = 100 mg/kg intravenously 1×/week

## Cc1sc2c(c1C)C(c1ccc(Cl)cc1)=N[C@@H](CC(=O)N1CCC(CN3CCN(Cc4ccc(-n5c(O)nnc5-c5cc(C(C)C)c(O)cc5O)cc4)CC3)CC1)c1nnc(C)n1-2.Cl [Compound 74, (S)-2-(4-(4-chlorophenyl)-2,3,9-trimethyl-6H-thieno[3,2-f][1,2,4]triazolo[4,3-a][1,4]diazepin-6-yl)-1-(4-((4-(4-(3-(2,4-dihydroxy-5-isopropylphenyl)-5-hydroxy-4H-1,2,4-triazol-4-yl)benzyl)piperazin-1-yl)methyl)piperidin-1-yl)ethan-1-one hydrochloride]
[1]; heart
  Cmax: 1640 ng/g
  Tmax: 1 h
  half-life: 3.7 h
[1]; liver
  Cmax: 5040 ng/g
  Tmax: 1 h
  half-life: 3.37 h
[1]; lung
  Cmax: 2030 ng/g
  Tmax: 1 h
  half-life: 6.94 h
[1]; plasma
  AUC(0-inf): 3020 ng·h/mL
  Cmax: 498 ng/mL
  Tmax: 1 h
  half-life: 3.92 h
[1]; tumor
  Cmax: 462 ng/g
  Tmax: 1 h
  half-life: 32.1 h
HSP90α
  potency in binding to HSP90, in words: moderate potency
HSP90α; competition with FITC-geldanamycin, read-out: HSP90 Binding Potency
  IC50: 100 to 1000 nM
MV4-11 xenograft; 50 mg/kg intravenously 1×/week
  animals tumor free at the end of the study: 1 out of 6
  tumor growth inhibition: significant tumor growth inhibition
MV4-11 xenograft; [2]
  animals tumor free at the end of the study: 4 out of 6
  tumor growth inhibition: significant tumor growth inhibition
MV4-11 xenograft; any group
  animal deaths and body weights: No animal deaths or significant effects on body weights were observed
BRD4 (BD1+BD2)
  IC50: 100 to 1000 nM
